The values that follow come from patent US5965372A, “Genetic sequences encoding glucocorticoid dehydrogenases and uses thereof” (Baker Medical Research Institute, priority 1996, dated 1999).

Test [1] concerns the target T1, 11βHSD2 (Homo sapiens, UniProt P80365).
T1 construct: homogenates or intact cells
T1 sequence (P80365 1-405 V148L): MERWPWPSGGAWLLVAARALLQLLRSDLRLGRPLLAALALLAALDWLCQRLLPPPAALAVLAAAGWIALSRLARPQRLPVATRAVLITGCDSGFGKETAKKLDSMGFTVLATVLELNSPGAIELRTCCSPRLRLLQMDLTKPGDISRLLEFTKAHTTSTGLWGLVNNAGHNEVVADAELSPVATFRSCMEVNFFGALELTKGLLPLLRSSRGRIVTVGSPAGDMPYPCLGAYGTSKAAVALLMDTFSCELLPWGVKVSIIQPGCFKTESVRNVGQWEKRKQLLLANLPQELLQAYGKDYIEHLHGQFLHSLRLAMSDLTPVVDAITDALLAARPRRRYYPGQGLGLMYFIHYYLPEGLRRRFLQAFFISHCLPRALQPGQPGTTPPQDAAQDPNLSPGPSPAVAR
Put plainly: Directionality and end product inhibition in intact pHSD2 transfected CHOP cells. As to conditions: monolayer cultures, 1.5 hours at 37° C., 1-2 nM labelled substrate, TLC. Format: cell-based. As for the experimental part: To determine directionality and extent of end production inhibition of the enzyme encoded by pHSD2, monolayer cultures of transfected CHOP cells were incubated for 1.5 hours at 37° C. with 1-2 nM labelled substrates plus 10 nM corresponding unlabelled 11-dehydro metabolite (FIG. 2b). The culture medium was then removed, extracted and assayed by TLC for the presence of the 11-dehydro metabolite.
Dehydrogenase activity was also estimated in the presence of an excess of the respective 11-dehydro metabolite (FIG. 2b, III).

For test [2], the target named is T1, 11βHSD2. Description: Cofactor specificity of glucocorticoid metabolism in homogenates of pHSD2 transfected CHOP cells. Format: biochemical. The conditions noted are these: 1 mM NAD+ or 1 mM NADP+, 37° C. for 40 minutes, TLC. As for the experimental part: CHOP cells were transfected with plasmid pHSD2, which contains an insert encoding 11βHSD2. After 60 hours incubation in 85 mm plates, cellular homogenates were prepared and assayed for their ability to metabolise glucocorticoid substrates in the presence of 1 mM NAD+, or 1 mM NADP+. Confluent cells were homogenised in 1 ml of homogenisation buffer (0.25 M sucrose, 10 MM phosphate, pH 7). Reaction mixtures (500 μl) contained either 40 μl of homogenate plus [^3 H]corticosterone, or 80 μl of homogenate plus [^3 H]cortisol, or 120 μl of homogenate plus [^3 H]dexamethasone, in homogenisation buffer. All reactions contained 1-2 nM tritiated glucocorticoid substrate plus 10 nM unlabelled glucocorticoid substrate. Reaction mixtures were incubated at 37° C. for 40 minutes and steroid metabolites were assayed by thin layer chromatography.

Test [3] concerns the target T1, 11βHSD2. Description: Km determination in homogenates of pHSD2 transfected CHOP cells. The class given is biochemical. As to conditions: double reciprocal plot, 37° C., mean±SD, n=3. The source says: The efficiency of the dehydrogenase may be further increased by mechanisms such as intracellular compartmentalisation of the enzyme.

In the case of `C[C@]12CC(=O)[C@H]3[C@@H](CCC4=CC(=O)CC[C@@]43C)[C@@H]1CC[C@@H]2C(=O)CO` [11-dehydro corticosterone], the “metabolite formation by intact transfected CHOP cells” value (shortened to “metabolite formation”) at 11βHSD2 [1] is “no metabolite formed”.

As usually defined, the Km is the substrate concentration at which the rate is half of its maximum. Take `C[C@]12C[C@H](O)[C@H]3[C@@H](CCC4=CC(=O)CC[C@@]43C)[C@@H]1CC[C@@H]2C(=O)CO` [corticosterone]: at 11βHSD2 [2], the “glucocorticoid metabolism to 11-dehydro metabolite, cofactor dependence” value (from here on “glucocorticoid metabolism”) was “only showed significant glucocorticoid metabolism when NAD+, but not NADP+, was included as a cofactor”. Moreover, the “metabolite formation” value on 11βHSD2 [1] is “converted”. The Michaelis-Menten constant (Km) at 11βHSD2 [3] came to 5.1 ± 1.2 nM.

Regarding `C[C@]12CCC(=O)C=C1CC[C@@H]1[C@@H]2[C@@H](O)C[C@@]2(C)[C@H]1CC[C@]2(O)C(=O)CO` [cortisol], the “glucocorticoid metabolism” value on 11βHSD2 [2] was “only showed significant glucocorticoid metabolism when NAD+, but not NADP+, was included as a cofactor”. At 11βHSD2 [1], the “metabolite formation” value is reported as “converted”.

As for `C[C@]12CCC(=O)C=C1CC[C@@H]1[C@@H]2C(=O)C[C@@]2(C)[C@H]1CC[C@]2(O)C(=O)CO` [cortisone], the “metabolite formation” value on 11βHSD2 [1] is listed as “no metabolite formed”.

As to `C[C@@H]1C[C@H]2[C@@H]3CCC4=CC(=O)C=C[C@]4(C)[C@@]3(F)[C@@H](O)C[C@]2(C)[C@@]1(O)C(=O)CO` [dexamethasone], the “glucocorticoid metabolism” value at 11βHSD2 [2] is given as “only showed significant glucocorticoid metabolism when NAD+, but not NADP+, was included as a cofactor”.
